# Measurements published in article PMC11111955, “Safety and efficacy evaluation of halicin as an effective drug for inhibiting intestinal infections” (Frontiers in Pharmacology, 2024).
# Columns and labels:
# WP2uvApKM101 = experiment: Ames test; assay type: cell-based, Escherichia coli
# Experimental: (§1) The experiments were performed in triplicate.
# TA100 = experiment: Ames test; assay type: cell-based, Salmonella typhimurium; settings: TA100, -S9, 1 μg/plate
# Experimental: as §1
# TA97a = experiment: Ames test; assay type: cell-based, Salmonella typhimurium; settings: -S9, 50 μg/plate
# Experimental: as §1
# TA98 = experiment: Ames test; assay type: cell-based, Salmonella typhimurium; settings: TA98, -S9, 50 μg/plate
# Experimental: as §1
# Mouse spermatozoa = settings: positive control group, 40 mg/kg cyclophosphamide
# mouse bone marrow cells = settings: positive control group, 40 mg/kg cyclophosphamide
# [1] = test system: bone marrow polychromatic erythrocytes; experiment: Micronucleus experiment of mammalian bone marrow cells; settings: positive control group, 40 mg/kg cyclophosphamide
structure (smiles),measurement,setting,value
"Nc1ccc2cc3ccccc3cc2c1 [2-AT, 2-Aminoanthracene]",Ames test bacterial counts,"WP2uvApKM101; WP2uvApKM101, +S9, 10 μg/plate",546 ± 26.9
"COS(C)(=O)=O [MSM, methyl methanesulfonate]",Ames test bacterial counts,TA100,"3,042 ± 69.3"
same,Ames test bacterial counts,"WP2uvApKM101; WP2uvApKM101, -S9, 1 μg/plate",926 ± 45.3
"CN(C)c1ccc(N=NS(=O)(=O)O)cc1 [DDT, fenaminosulf]",Ames test bacterial counts,TA97a,"3,451 ± 53.7"
same,Ames test bacterial counts,TA98,"2,985 ± 76.4"
"O=P1(N(CCCl)CCCl)NCCCO1 (centres unmarked) [Positive, cyclophosphamide]",Abnormal ratio (%),Mouse spermatozoa; male ICR mice,8.34 ± 0.47%
same,Number of sperm abnormality,"Mouse spermatozoa; male ICR mice, of 5 × 1,000 sperms observed",417
same,Abnormal sperms counted ratio (%): Amorphous,Mouse spermatozoa,48.33 ± 4.33%
same,Abnormal sperms counted ratio (%): Banana shape,Mouse spermatozoa,10.58 ± 1.46%
same,Abnormal sperms counted ratio (%): Kinks tail,Mouse spermatozoa,5.76 ± 0.94%
same,Abnormal sperms counted ratio (%): Large round head,Mouse spermatozoa,9.37 ± 1.03%
same,Abnormal sperms counted ratio (%): No hook,Mouse spermatozoa,10.07 ± 1.23%
same,Abnormal sperms counted ratio (%): Two head,Mouse spermatozoa,5.52 ± 1.36%
same,Abnormal sperms counted ratio (%): Two tail,Mouse spermatozoa,4.84 ± 1.99%
same,Chromosome aberration (%),mouse bone marrow cells,18.6 ± 7.67%
same,Number of cells with chromosome aberration,mouse bone marrow cells; of 5 × 100 cells at metaphase,93
same,PCE micronucleus (‰),[1]; Female mice,18.8 ± 1.9 ‰
same,PCE/RBC,[1]; Female mice,0.5 ± 0.04
same,PCE micronucleus (‰),[1]; Male mice,18.8 ± 2.6 ‰
same,PCE/RBC,[1]; Male mice,0.51 ± 0.09
